Reference: ChEMBL document CHEMBL5370621, “Design, Synthesis, and Biological Evaluation of Novel Thioureidobenzamide (TBA) Derivatives as HBV Capsid Assembly Modulators” (J Med Chem, 2023)

Tests used:
Hepatitis B virus = assay: Antiviral activity against Hepatitis B virus infected in human HePAD38 cells assessed as inhibition of viral DNA replication by qPCR analysis; type: functional, organism-based
[1] = Cytotoxicity against human HePAD38 cells assessed as reduction in cell viability incubated for 72 hrs by CCK8 assay; type: toxicity, cell-based
[2] = Selectivity index, ratio of CC50 for cytotoxicity against human HePAD38 cells to EC50 for antiviral activity against Hepatitis B virus infected in human HePAD38 cells; type: toxicity, cell-based; conditions: read-out: Ratio CC50/EC50

Structure (SMILES)	EC50 (Hepatitis B virus)	CC50 at 72 h [1]	selectivity ratio [2]
Cc1cc(NC(=O)c2cc(NC(=O)NCc3ccc(C(C)(C)C)cc3)c(F)cc2Br)ccc1F	2330 nM	> 100 µM	> 42.9
O=C(Nc1cc(F)c(F)c(F)c1)c1cc(S(=O)(=O)N2CCC(O)CC2)c(F)cc1Br	1720 nM	3.41 µM	1.98
C=CC(=O)Nc1cc(C(=O)Nc2ccc(F)c(C)c2)c(Br)cc1F	2220 nM	7.98 µM	3.59
O=C(Nc1cc(F)c(F)c(F)c1)c1cc(S(=O)(=O)N[C@H]2CCOC2)c(F)cc1Br	4700 nM	88.2 µM	18.8
Cc1cc(NC(=O)c2cc(NC(=O)C(=O)NC3CCCC3)c(F)cc2Br)ccc1F	> 20000 nM	17.4 µM	< 0.87
Cc1cc(NC(=O)c2cc(NC(=O)C3CCC3)c(F)cc2Br)ccc1F	3460 nM	79.6 µM	23
N#Cc1cc(NC(=O)c2cc(S(=O)(=O)NC3CCCC3)c(F)cc2Br)ccc1F	1450 nM	19.3 µM	13.3
Cc1cc(NC(=O)c2cc(NC(=O)N3CCC(O)CC3)c(F)cc2Br)ccc1F	4340 nM	> 100 µM	> 23
Cc1cc(NC(=O)c2cc(NC(=O)NC3CCCC3)c(F)cc2Br)ccc1F	5770 nM	5.52 µM	0.96
Cc1cc(NC(=O)c2cc(NC(=O)NC3CCC(O)CC3)c(F)cc2Br)ccc1F (centres undefined)	7330 nM	> 100 µM	> 13.6
N#Cc1cc(NC(=O)c2cc(S(=O)(=O)N[C@H]3CCOC3)c(F)cc2Br)ccc1F	6490 nM	> 100 µM	> 15.4

Now those with a lower EC50 (Hepatitis B virus), led by results:

EC50 (Hepatitis B virus)	Structure (SMILES)	CC50 at 72 h [1]	selectivity ratio [2]
610 nM	Cc1cc(NC(=O)c2cc(S(=O)(=O)N[C@H]3CCOC3)c(F)cc2Br)ccc1F	> 100 µM	> 164
110 nM	O=C(Nc1cc(F)c(F)c(F)c1)c1cc(S(=O)(=O)NC2CCCC2)c(F)cc1Br	34.5 µM	313
1010 nM	Cc1cc(NC(=O)c2cc(NC(=O)c3ccc(C(F)(F)F)cc3)c(F)cc2Br)ccc1F	4.88 µM	4.83
660 nM	Cc1cc(NC(=O)c2cc(NC(=O)c3cccs3)c(F)cc2Br)ccc1F	85.1 µM	129
540 nM	Cc1cc(NC(=O)c2cc(NC(=O)C3CC3)c(F)cc2Br)ccc1F	84 µM	155
940 nM	O=C(Nc1ccc(F)c(Cl)c1)c1cc(S(=O)(=O)N[C@H]2CCOC2)c(F)cc1Br	20.6 µM	21.9
810 nM	O=C(Nc1cc(F)cc(F)c1)c1cc(S(=O)(=O)NC2CCCC2)c(F)cc1Br	> 100 µM	> 123
500 nM	Cc1cc(NC(=O)c2cc(NC(=O)NCc3cccnc3)c(F)cc2Br)ccc1F	> 100 µM	> 200
440 nM	Cc1cc(NC(=O)c2cc(S(=O)(=O)NC3CCCC3)c(F)cc2Br)ccc1F	> 100 µM	> 227
1350 nM	Cc1cc(NC(=O)c2cc(NC(=O)C3CCCCC3)c(F)cc2Br)ccc1F	20.7 µM	15.3
180 nM	CCNC(=S)Nc1cc(C(=O)Nc2ccc(F)c(C)c2)c(Br)cc1F	43.6 µM	242
10 nM	Cc1cc(NC(=O)c2cc(NC(=S)NCc3ccc(B(O)O)cc3)c(F)cc2C)ccc1F	5.95 µM	595
